The record followed here is ChEMBL document CHEMBL1126299, “Synthesis and structure-activity relationships of cephalosporins with C-3' catechol-containing residues” (J Med Chem, 1992).

Converted amounts (≈) assume the structure as drawn. Bounds are passed on as bounds.

The nature of data set [1]: physchem.
Description: The dissociation constant of compound was tested for beta-Lactamase stability
Data set [2] has as its system Enterobacter cloacae. Description: microbe, parasite or virus in culture.
Description: Minimum inhibitory concentration in Enterobacter cloacae, DR 401108 constitutive depressed type 1 lactamase producer
Data set [3] has as its system Enterobacter cloacae. Description: microbe, parasite or virus in culture. The source holds these as a separate data set.
Description: Minimum inhibitory concentration in Enterobacter cloacae, P99+ constitutive depressed type 1 lactamase producer
Data set [4] is described as follows: The compound was evaluated for area under the curve in marmosets. The class given is ADME. As to conditions: callithrix, in vivo.
Data set [5] has as its system Enterobacter cloacae. Put plainly: microbe, parasite or virus in culture. This is another data set of the same source.
Description: Minimum inhibitory concentration in Enterobacter cloacae, I+401029 inducible type 1 lactamase producer
The test system of data set [6] is Pseudomonas aeruginosa. Description: microbe, parasite or virus in culture.
Description: In vitro minimum inhibitory concentration against Pseudomonas aeruginosa (PU21).
Data set [7] concerns Escherichia coli. Description: microbe, parasite or virus in culture.
Description: In vitro minimum inhibitory concentration against Escherichia coli (DC0 parent organism).
Data set [8] deals with Providencia stuartii. Put plainly: microbe, parasite or virus in culture.
Description: Minimum inhibitory concentration in Pseudomonas stuartii, DR 442049 constitutive depressed type 1 lactamase producer
Data set [9] concerns Staphylococcus aureus. Put plainly: The compound was tested for minimum inhibitory concentration in Staphylococcus aureus Oxford penicillin sensitive Staphylococcus aureus. In kind it is functional.
Data set [10] relates to Citrobacter freundii. Description: microbe, parasite or virus in culture.
Description: Minimum inhibitory concentration in Citrobacter freundii, I+382010 inducible type 1 lactamase producer
Data set [11] relates to Staphylococcus aureus. Put plainly: The compound was tested for minimum inhibitory concentration in Staphylococcus aureus,147N penicillin sensitive Staphylococcus aureus. The class given is functional.
In data set [12] the test system is Pseudomonas aeruginosa. Put plainly: microbe, parasite or virus in culture. The source holds these as a separate data set.
Description: Minimum inhibitory concentration in Pseudomonas aeruginosa, 18S inducible type 1 lactamase producer
In data set [13] the test system is Pseudomonas aeruginosa. Put plainly: microbe, parasite or virus in culture. This is another data set of the same source.
Description: Minimum inhibitory concentration in Pseudomonas aeruginosa,799/61 permeability mutant
Data set [14] deals with Providencia stuartii. Put plainly: microbe, parasite or virus in culture. The source holds these as a separate data set.
Description: Minimum inhibitory concentration in Pseudomonas stuartii, I+442019 inducible type 1 lactamase producer
Data set [15] concerns Escherichia coli. Description: microbe, parasite or virus in culture. This is another data set of the same source.
Description: In vitro minimum inhibitory concentration against Escherichia coli (DC2 permeability mutant).
For data set [16], the system named is Pseudomonas aeruginosa. Description: microbe, parasite or virus in culture. This is another data set of the same source.
Description: Minimum inhibitory concentration in Pseudomonas aeruginosa,799WT parent organism
Data set [17] concerns Citrobacter freundii. Description: microbe, parasite or virus in culture. The source holds these as a separate data set.
Description: Minimum inhibitory concentration in Citrobacter freundii, DR 382031 constitutive depressed type 1
A short description of data set [18]: The half life period in marmosets. The class given is ADME. The conditions noted are these: callithrix, in vivo.
For data set [19], the system named is Pseudomonas aeruginosa. Put plainly: microbe, parasite or virus in culture. The source holds these as a separate data set.
Description: Minimum inhibitory concentration in Pseudomonas aeruginosa, 18SH constitutive depressed type 1 lactamase producer
Data set [20] concerns Enterobacter cloacae. Put plainly: microbe, parasite or virus in culture. The source holds these as a separate data set.
Description: Minimum inhibitory concentration in Enterobacter cloacae, P99- inducible type 1 lactamase producer
Data set [21] relates to Staphylococcus aureus. Description: microbe, parasite or virus in culture.
In data set [22] the test system is Staphylococcus aureus. Put plainly: microbe, parasite or virus in culture. The source holds these as a separate data set.

Usually pKa stands for the pH at which an ionisable group is half protonated. A low value points to a stronger acid or weaker base. As usually defined, the half-life is the time in which the quantity being followed falls by half. Read a low half-life as fast loss.

On to `CC(C)(O/N=C(\C(=O)N[C@@H]1C(=O)N2C(C(=O)O)=C(CCOC(=O)c3cc(O)c(O)c(Br)c3)CSC12)c1csc(N)n1)C(=O)O` (some centres undefined), for which the pKa in data set [1] was determined as 6.5. For the same compound, the MIC was over 128 µg/mL in data set [2]; 2 µg/mL (≈ 2.8 µM) in data set [3]; 0.03 µg/mL (≈ 0.042 µM) in [5]; 0.008 µg/mL (≈ 0.0112 µM) in [6]; 0.008 µg/mL (≈ 0.0112 µM) in data set [7]; 2 µg/mL (≈ 2.8 µM) in data set [8]. Also, the MIC was determined as 8 µg/mL (≈ 11.2 µM) in data set [9]; 0.008 µg/mL (≈ 0.0112 µM) in data set [10]; 8 µg/mL (≈ 11.2 µM) in [11]; 0.008 µg/mL (≈ 0.0112 µM) in data set [12]; 0.008 µg/mL (≈ 0.0112 µM) in [13]; 0.03 µg/mL (≈ 0.042 µM) in data set [14]. Further, the MIC stood at 0.008 µg/mL (≈ 0.0112 µM) in [15]; 0.008 µg/mL (≈ 0.0112 µM) in data set [16]; 4 µg/mL (≈ 5.6 µM) in data set [17]; 0.03 µg/mL (≈ 0.042 µM) in data set [19]; 0.03 µg/mL (≈ 0.042 µM) in data set [20]. This compound came in with an AUC in data set [4] of 67.7 mg/h/L. This compound also showed a half-life in data set [18] of 1.68 h.
`CC(C)(O/N=C(\C(=O)N[C@@H]1C(=O)N2C(C(=O)O)=C(CNC(=O)c3cc(O)c(O)c(Cl)c3)CSC12)c1csc(N)n1)C(=O)O` (some centres undefined) registered a pKa in [1] of 7. Also, the MIC in [2] was 16 µg/mL (≈ 24.4 µM); in [3], 4 µg/mL (≈ 6.11 µM); in data set [5] it was 0.06 µg/mL (≈ 0.0916 µM); in [6] it was 0.008 µg/mL (≈ 0.0122 µM); in [21] it was 16 µg/mL (≈ 24.4 µM); in data set [7] it was 0.008 µg/mL (≈ 0.0122 µM). Besides, the MIC in data set [8] was determined as 2 µg/mL (≈ 3.05 µM); in data set [10], 0.008 µg/mL (≈ 0.0122 µM); in [12], 0.008 µg/mL (≈ 0.0122 µM); in [13], 0.008 µg/mL (≈ 0.0122 µM); in [14], 0.03 µg/mL (≈ 0.0458 µM); in data set [15] it was 0.008 µg/mL (≈ 0.0122 µM). The MIC is 0.008 µg/mL (≈ 0.0122 µM) in data set [16]; 4 µg/mL (≈ 6.11 µM) in data set [17]; 16 µg/mL (≈ 24.4 µM) in data set [22]; 0.003 µg/mL (≈ 0.00458 µM) in [19]; 0.06 µg/mL (≈ 0.0916 µM) in data set [20]. The compound also showed an AUC in data set [4] of 638.3 mg/h/L. This compound showed a half-life in [18] of 4.57 h.
`CC(C)(O/N=C(\C(=O)N[C@@H]1C(=O)N2C(C(=O)O)=C(CCCC(=O)c3cc(O)c(O)c(Cl)c3)CSC12)c1csc(N)n1)C(=O)O` (some centres undefined): the MIC in data set [2] is over 32 µg/mL; in data set [3], 1 µg/mL (≈ 1.5 µM); in data set [5] it was 0.03 µg/mL (≈ 0.0449 µM); in [6] it was 0.015 µg/mL (≈ 0.0225 µM); in [7], 0.008 µg/mL (≈ 0.012 µM); in [8], 1 µg/mL (≈ 1.5 µM). Also, the MIC in data set [9] turned out to be 16 µg/mL (≈ 23.9 µM); in data set [10], 0.008 µg/mL (≈ 0.012 µM); in [11], 16 µg/mL (≈ 23.9 µM); in data set [12] it was 0.008 µg/mL (≈ 0.012 µM); in data set [13], 0.008 µg/mL (≈ 0.012 µM); in data set [14] it was 0.03 µg/mL (≈ 0.0449 µM). The MIC in data set [15] turned out to be 0.008 µg/mL (≈ 0.012 µM); in [16], 0.008 µg/mL (≈ 0.012 µM); in data set [17], 2 µg/mL (≈ 2.99 µM); in [19] it was 0.015 µg/mL (≈ 0.0225 µM); in [20], 0.03 µg/mL (≈ 0.0449 µM).
Turning to `CC(C)(O/N=C(\C(=O)N[C@@H]1C(=O)N2C(C(=O)O)=C(CCc3ccc(O)c(O)c3)CSC12)c1csc(N)n1)C(=O)O` (some centres undefined), the MIC in [2] was 32 µg/mL (≈ 54.1 µM); in [3] it was 32 µg/mL (≈ 54.1 µM); in data set [5] it was 0.5 µg/mL (≈ 0.845 µM); in data set [6], 0.25 µg/mL (≈ 0.423 µM); in data set [7] it was 0.125 µg/mL (≈ 0.211 µM); in [8] it was 8 µg/mL (≈ 13.5 µM). Also, the MIC in [9] turned out to be 8 µg/mL (≈ 13.5 µM); in [10] it was 0.25 µg/mL (≈ 0.423 µM); in data set [11], 16 µg/mL (≈ 27 µM); in data set [12], 0.03 µg/mL (≈ 0.0507 µM); in data set [13] it was 0.125 µg/mL (≈ 0.211 µM); in data set [14], 2 µg/mL (≈ 3.38 µM). In addition, the MIC in [15] worked out at 0.03 µg/mL (≈ 0.0507 µM); in data set [16], 0.06 µg/mL (≈ 0.101 µM); in data set [17], 16 µg/mL (≈ 27 µM); in data set [19], 0.125 µg/mL (≈ 0.211 µM); in data set [20], 4 µg/mL (≈ 6.76 µM).
For the compound `CCO/N=C(\C(=O)N[C@@H]1C(=O)N2C(C(=O)O)=C(CNC(=O)c3cc(O)c(O)c(Br)c3)CSC12)c1csc(N)n1` (some centres undefined), in [1], the pKa is 6.9. The MIC in data set [2] amounted to 128 µg/mL (≈ 200 µM); in data set [3], 8 µg/mL (≈ 12.5 µM); in [5] it was 0.03 µg/mL (≈ 0.0468 µM); in [6] it was 0.06 µg/mL (≈ 0.0935 µM); in [21], 2 µg/mL (≈ 3.12 µM); in data set [7] it was 0.008 µg/mL (≈ 0.0125 µM). In addition, the MIC amounted to 4 µg/mL (≈ 6.24 µM) in [8]; 0.008 µg/mL (≈ 0.0125 µM) in data set [10]; 0.008 µg/mL (≈ 0.0125 µM) in [12]; 0.008 µg/mL (≈ 0.0125 µM) in [13]; 0.125 µg/mL (≈ 0.195 µM) in [14]; 0.008 µg/mL (≈ 0.0125 µM) in [15]. Also, the MIC in [16] came out at 0.015 µg/mL (≈ 0.0234 µM); in [17] it was 16 µg/mL (≈ 24.9 µM); in [22], 4 µg/mL (≈ 6.24 µM); in data set [19], 4 µg/mL (≈ 6.24 µM); in [20], 0.015 µg/mL (≈ 0.0234 µM). Also, in [4], the AUC turned out to be 16.97 mg/h/L. The half-life in data set [18] is 0.67 h.
